Key:
[1] = target: T1, MTHFD1 recombinant human enzyme (Homo sapiens, UniProt P11586); experiment: MTHFD1 inhibition assay (NAD(P)H-Glo luminescence); details: MTHFD1 IC50, recombinant human enzyme 200 nM, NADP, band
T1 sequence (P11586 2-291 limits assumed): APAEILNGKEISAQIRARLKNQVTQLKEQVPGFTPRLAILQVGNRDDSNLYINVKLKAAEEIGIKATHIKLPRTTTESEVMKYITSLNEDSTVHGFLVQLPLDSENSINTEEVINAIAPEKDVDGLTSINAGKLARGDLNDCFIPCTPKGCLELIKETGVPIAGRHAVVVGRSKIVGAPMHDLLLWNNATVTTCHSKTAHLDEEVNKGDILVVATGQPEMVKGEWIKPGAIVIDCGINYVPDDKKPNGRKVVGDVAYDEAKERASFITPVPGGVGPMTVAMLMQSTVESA

[2] = target: T2, MTHFD2 recombinant human enzyme (Homo sapiens, UniProt P13995); experiment: MTHFD2 inhibition assay (NAD(P)H-Glo luminescence)
T2 sequence (P13995 36-350): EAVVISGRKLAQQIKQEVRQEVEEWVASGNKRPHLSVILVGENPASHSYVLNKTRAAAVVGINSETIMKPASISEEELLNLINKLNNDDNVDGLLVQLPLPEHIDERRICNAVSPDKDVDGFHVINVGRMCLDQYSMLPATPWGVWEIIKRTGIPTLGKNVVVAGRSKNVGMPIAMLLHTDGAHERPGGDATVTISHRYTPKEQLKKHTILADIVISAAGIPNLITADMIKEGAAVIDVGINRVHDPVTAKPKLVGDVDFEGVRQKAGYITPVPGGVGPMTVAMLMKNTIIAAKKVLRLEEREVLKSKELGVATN

[3] = selectivity of MTHFD2 inhibition over MTHFD1, band

Row | Structure (SMILES) | IC50 [1] [nM] | IC50 [2] [nM] | MTHFD1/MTHFD2 IC50 ratio [2, 3] | MTHFD1/MTHFD2 IC50 ratio ([2]; mean value after increased number of repeats, band)
1 | COC[C@H]1CN(c2cc(Cl)c3c4c(c(=O)oc3c2C)CN(C(=O)c2cc(OC3CC3)c(C(=O)NS(=O)(=O)N3C5CCC3COC5)cc2F)CC4)CCN1C [Example 307, N-((3-oxa-8-azabicyclo[3.2.1]octan-8-yl)sulfonyl)-4-(10-chloro-8-((R)-3-(methoxymethyl)-4-methylpiperazin-1-yl)-7-methyl-5-oxo-1,3,4,5-tetrahydro-2H-chromeno[3,4-c]pyridine-3-carbonyl)-2-cyclopropoxy-5-fluorobenzamide] | 1000 to 5000 | 10 to 100 |  | 
2 | COC[C@H]1CN(c2cc(C)c3c4c(c(=O)oc3c2C)CN(C(=O)c2ccc(C(=O)NS(=O)(=O)N3CCCC3)c(OC3C5CC6CC(C5)CC3C6)c2F)CC4)CCN1C (stereo partly drawn) [Example 94, 2-((adamantan-2-yl)oxy)-3-fluoro-4-(8-((R)-3-(methoxymethyl)-4-methylpiperazin-1-yl)-7,10-dimethyl-5-oxo-1,3,4,5-tetrahydro-2H-chromeno[3,4-c]pyridine-3-carbonyl)-N-(pyrrolidin-1-ylsulfonyl)benzamide] | 10 to 100 | 10 to 100 | F (<3) | 
3 | COC[C@H]1CN(c2ccc3c4c(c(=O)oc3c2Cl)CN(C(=O)c2ccc(C(=O)NS(=O)(=O)N3CCCC3)c(O[C@@H]3C[C@@H]5C[C@@H]5C3)c2F)CC4)CCN1C [Example 62, 2-(((1R,3r,5S)-bicyclo[3.1.0]hexan-3-yl)oxy)-4-(7-chloro-8-((R)-3-(methoxymethyl)-4-methylpiperazin-1-yl)-5-oxo-1,3,4,5-tetrahydro-2H-chromeno[3,4-c]pyridine-3-carbonyl)-3-fluoro-N-(pyrrolidin-1-ylsulfonyl)benzamide] | 1 to 10 | 10 to 100 | F (<3) | 
4 | COC[C@H]1CN(c2cc(C)c3c4c(c(=O)oc3c2C)CN(C(=O)c2ccc(C(=O)NS(=O)(=O)N3CCCC3)c(N3CC5CC5C3)c2F)CC4)CCN1C (stereo partly drawn) [Example 95, 2-(3-azabicyclo[3.1.0]hexan-3-yl)-3-fluoro-4-(8-((R)-3-(methoxymethyl)-4-methylpiperazin-1-yl)-7,10-dimethyl-5-oxo-1,3,4,5-tetrahydro-2H-chromeno[3,4-c]pyridine-3-carbonyl)-N-(pyrrolidin-1-ylsulfonyl)benzamide] | 100 to 1000 | 100 to 1000 | F (<3) | 
5 | COC[C@H]1CN(c2cc(C)c3c4c(c(=O)oc3c2C)CN(C(=O)c2ccc(C(=O)NS(=O)(=O)C3(C)CC3)c(N3CC5CC5C3)c2F)CC4)CCN1C (stereo partly drawn) [Example 71, 2-(3-azabicyclo[3.1.0]hexan-3-yl)-3-fluoro-4-(8-((R)-3-(methoxymethyl)-4-methylpiperazin-1-yl)-7,10-dimethyl-5-oxo-1,3,4,5-tetrahydro-2H-chromeno[3,4-c]pyridine-3-carbonyl)-N-((1-methylcyclopropyl)sulfonyl)benzamide] | 10 to 100 | 1 to 10 |  | 
6 | COC[C@H]1CN(c2cc(C)c3c4c(c(=O)oc3c2C)CN(C(=O)c2ccc(C(=O)NS(=O)(=O)C3(C)CC3)c(N(C)C3CC3)c2)CC4)CCN1C [Example 83, (R)-2-(cyclopropyl(methyl)amino)-4-(8-(3-(methoxymethyl)-4-methylpiperazin-1-yl)-7,10-dimethyl-5-oxo-1,3,4,5-tetrahydro-2H-chromeno[3,4-c]pyridine-3-carbonyl)-N-((1-methylcyclopropyl)sulfonyl)benzamide] | 10 to 100 | 1 to 10 | G (^ 3 to 9.0) | H* (>9.0 to 30)
7 | COC[C@H]1CN(c2cc(C)c3c4c(c(=O)oc3c2C)CN(C(=O)c2ccc(C(=O)NS(=O)(=O)N3C5CCC3CC5)cc2Cl)CC4)CCN1C [Example 185, (R)-N-((7-azabicyclo[2.2.1]heptan-7-yl)sulfonyl)-3-chloro-4-(8-(3-(methoxymethyl)-4-methylpiperazin-1-yl)-7,10-dimethyl-5-oxo-1,3,4,5-tetrahydro-2H-chromeno[3,4-c]pyridine-3-carbonyl)benzamide] | > 5000 | 100 to 1000 | H (>9.0 to 30) | 

Continued, values first:

Row | IC50 [1] [nM] | IC50 [2] [nM] | MTHFD1/MTHFD2 IC50 ratio [2, 3] | MTHFD1/MTHFD2 IC50 ratio ([2]; mean value after increased number of repeats, band) | Structure (SMILES)
8 | 1000 to 5000 | 100 to 1000 | J (>30) |  | COC[C@H]1CN(c2cc(C)c3c4c(c(=O)oc3c2C)CN(C(=O)c2ccc(C(=O)NS(=O)(=O)N3CCCC3)cc2Cl)CC4)CCN1C [Example 184, (R)-3-chloro-4-(8-(3-(methoxymethyl)-4-methylpiperazin-1-yl)-7,10-dimethyl-5-oxo-1,3,4,5-tetrahydro-2H-chromeno[3,4-c]pyridine-3-carbonyl)-N-(pyrrolidin-1-ylsulfonyl)benzamide]
9 | 100 to 1000 | 10 to 100 | G (^ 3 to 9.0) |  | COC[C@H]1CN(c2ccc3c4c(c(=O)oc3c2C)CN(C(=O)c2ccc(C(=O)NS(=O)(=O)C3(C)CC3)c(N(C)C)c2F)CC4)CCN1C [Example 137, (R)-2-(dimethylamino)-3-fluoro-4-(8-(3-(methoxymethyl)-4-methylpiperazin-1-yl)-7-methyl-5-oxo-1,3,4,5-tetrahydro-2H-chromeno[3,4-c]pyridine-3-carbonyl)-N-((1-methylcyclopropyl)sulfonyl)benzamide]
10 | 10 to 100 | 10 to 100 | F (<3) |  | COC[C@H]1CN(c2cc(C)c3c4c(c(=O)oc3c2C)CN(C(=O)c2ccc(C(=O)NS(=O)(=O)N(C)C)c(N3CCC[C@H]3C)c2)CC4)CCN1C [Example 102, N-(N,N-dimethylsulfamoyl)-4-(8-((R)-3-(methoxymethyl)-4-methylpiperazin-1-yl)-7,10-dimethyl-5-oxo-1,3,4,5-tetrahydro-2H-chromeno[3,4-c]pyridine-3-carbonyl)-2-((R)-2-methylpyrrolidin-1-yl)benzamide]
11 | 100 to 1000 | 10 to 100 | G (^ 3 to 9.0) |  | COC[C@H]1CN(c2cc(Cl)c3c4c(c(=O)oc3c2C)CN(C(=O)c2cc(N(C)C)c(C(=O)NS(=O)(=O)N3CCCCC3)cc2F)CC4)CCN1C [Example 275, (R)-4-(10-chloro-8-(3-(methoxymethyl)-4-methylpiperazin-1-yl)-7-methyl-5-oxo-1,3,4,5-tetrahydro-2H-chromeno[3,4-c]pyridine-3-carbonyl)-2-(dimethylamino)-5-fluoro-N-(piperidin-1-ylsulfonyl)benzamide]
12 | > 5000 | 1000 to 5000 | F (<3) |  | COC[C@H]1CN(c2cc(C)c3c4c(c(=O)oc3c2C)CN(C(=O)c2cc(C(=O)NS(=O)(=O)N3CCCC3)c3c(c2F)OC2(CCC2)O3)CC4)CCN1C [Example 168, (R)-4-fluoro-5-(8-(3-(methoxymethyl)-4-methylpiperazin-1-yl)-7,10-dimethyl-5-oxo-1,3,4,5-tetrahydro-2H-chromeno[3,4-c]pyridine-3-carbonyl)-N-(pyrrolidin-1-ylsulfonyl)spiro[benzo[d][1,3]dioxole-2,1′-cyclobutane]-7-carboxamide]
13 | 1000 to 5000 | 100 to 1000 | H (>9.0 to 30) |  | COC[C@H]1CN(c2ccc3c4c(c(=O)oc3c2C)CN(C(=O)c2cc(N(C)C)c(C(=O)NS(=O)(=O)N3CCC5(CC3)CC5)cc2F)CC4)CCN1C [Example 189, (R)-N-((6-azaspiro[2.5]octan-6-yl)sulfonyl)-2-(dimethylamino)-5-fluoro-4-(8-(3-(methoxymethyl)-4-methylpiperazin-1-yl)-7-methyl-5-oxo-1,3,4,5-tetrahydro-2H-chromeno[3,4-c]pyridine-3-carbonyl)benzamide]
14 | > 5000 | 100 to 1000 | H (>9.0 to 30) |  | COC[C@H]1CN(c2ccc3c4c(c(=O)oc3c2)CN(C(=O)c2ccc(C(=O)NS(=O)(=O)N3CCCC3)c(OC3CCCC3)c2F)CC4)CCN1C [Example 183, (R)-2-(cyclopentyloxy)-3-fluoro-4-(8-(3-(methoxymethyl)-4-methylpiperazin-1-yl)-5-oxo-1,3,4,5-tetrahydro-2H-chromeno[3,4-c]pyridine-3-carbonyl)-N-(pyrrolidin-1-ylsulfonyl)benzamide]
15 | 1000 to 5000 | 10 to 100 | J (>30) |  | COC[C@H]1CN(c2cc(Cl)c3c4c(c(=O)oc3c2C)CN(C(=O)c2cc(N(C)C)c(C(=O)NS(=O)(=O)N3CCC[C@H]3C(F)(F)F)cc2F)CC4)CCN1C [Example 295, 4-(10-chloro-8-((R)-3-(methoxymethyl)-4-methylpiperazin-1-yl)-7-methyl-5-oxo-1,3,4,5-tetrahydro-2H-chromeno[3,4-c]pyridine-3-carbonyl)-2-(dimethylamino)-5-fluoro-N-(((S)-2-(trifluoromethyl)pyrrolidin-1-yl)sulfonyl)benzamide]
16 | 10 to 100 | 1 to 10 | F (<3) |  | COC[C@H]1CN(c2cc(C)c3c4c(c(=O)oc3c2C)CN(C(=O)c2ccc(C(=O)NS(=O)(=O)N3CCCC3)c(OCCC(F)(F)F)c2F)CC4)CCN1C [Example 222, (R)-3-fluoro-4-(8-(3-(methoxymethyl)-4-methylpiperazin-1-yl)-7,10-dimethyl-5-oxo-1,3,4,5-tetrahydro-2H-chromeno[3,4-c]pyridine-3-carbonyl)-N-(pyrrolidin-1-ylsulfonyl)-2-(3,3,3-trifluoropropoxy)benzamide]

Reference: patent US12662489B2 (Sitryx Therapeutics Limited, priority 2023, dated 2026)
